# Reference: patent US20090306080A1, “VETERINARY FORMULATION” (priority 2006, published 2009)
# Type: physicochemical
# Conditions: pH 7
# Source text: The solubility of cyromazine in a range of organic solvents including solvents which are commonly used in topical spray-on formulations is shown in the table below.
smiles,measurement,value
"Nc1nc(N)nc(NC2CC2)n1 [cyromazine, 2-cyclopropyl-amino-4,6-diamino-s-triazine]",Solubility (g/kg) at 20° C.,1.3 (pH 7) g/kg
